Assay results published in US20240245658A1, “TAAR1 AND SEROTONIN MODULATORS, AND PHARMACEUTICAL COMPOSITIONS, AND METHODS OF USE THEREOF” (Sunovion Pharmaceuticals Inc., priority 2021, published 2024).
Where two headings read alike, the source gives them in different places.

Legend:
Assay type in all cases: cell-based
human 5-HT2A receptor = biological target: T1, human 5-HT2A receptor (Homo sapiens, UniProt P28223); assay: 5HT2A Antagonism Assay (Euroscreen FAST-05051), IP-One HTRF
T1 construct: host or cells: CHO-K1
Protocol: 5HT2A Antagonism Assay Protocol (Euroscreen FAST-05051)
CHO-K1 cells expressing the human 5-HT2A receptor grown to mid-log phase in culture media without antibiotics, were detached with PBS-EDTA, centrifuged, and resuspended in the IP-One Gq kit (Cisbio Bioassays, 62IPAPEC) stimulation buffer.
For antagonist testing in a 384 well plate: 5 μl of cells (20,000 cells) were mixed with 5 μl of a mix of test compound and reference agonist (for a final assay concentration corresponding to its EC80) diluted in stimulation buffer. The plate was incubated for 60 minutes at 37° C. in a humidified atmosphere of 95% air with 5% CO2, then 5 μL of IP1-d2 and anti-IP1 cryptate detection reagents were added to each well, the plates were incubated for about 1 hour at about room temperature. Fluorescence ratios are measured according to the manufacturer's specification (IP-One Gq kit (Cisbio Bioassays, 62IPAPEC).
Dose response curves were performed in parallel with reference compounds (e.g., α-methyl-5-HT. Compounds were tested at the following nanomolar concentrations, in duplicate: 0.3 nM, 1 nM, 3 nM, 10 nM, 30 nM, 100 nM, 300 nM, 1,000 nM, 3,000 nM, and 10,000 nM

human TAAR1 receptors = biological target: T2, human TAAR1 receptors (Homo sapiens, UniProt Q96RJ0); assay: TAAR1 Agonism Assay: cAMP HTRF assay for Gs coupled receptor TAAR1 (Euroscreen FAST-0987C); conditions: CHO-K1 cells expressing human TAAR1, cAMP HTRF
T2 construct: host or cells: CHO-K1
T2 sequence (Q96RJ0 1-339): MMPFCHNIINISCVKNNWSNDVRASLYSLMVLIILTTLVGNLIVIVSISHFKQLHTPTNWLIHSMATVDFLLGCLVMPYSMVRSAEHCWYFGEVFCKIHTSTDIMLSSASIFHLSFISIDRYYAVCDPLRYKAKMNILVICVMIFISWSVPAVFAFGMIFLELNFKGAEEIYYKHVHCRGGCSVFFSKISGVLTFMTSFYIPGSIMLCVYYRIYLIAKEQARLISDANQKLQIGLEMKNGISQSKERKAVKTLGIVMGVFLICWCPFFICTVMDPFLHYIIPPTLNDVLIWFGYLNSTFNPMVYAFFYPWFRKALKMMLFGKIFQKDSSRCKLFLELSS
Protocol: Dose response curves were performed in parallel with the reference compound, tyramine.
For the TAAR1 agonist test (performed in a 384 well plate): 5 μl of cells (about 3,000 cells) were mixed with 5 μl of the test compound diluted in assay buffer and then incubated for about 30 minutes at about room temperature. After addition of the lysis buffer containing cAMP-d2 and anti-cAMP cryptate detection reagents, plates were incubated for about a 1-hour incubation at about room temperature, and fluorescence ratios were measured according to the manufacturer specifications, with the HTRF (Homogeneous Time Resolved Fluorescence) kit (cAMP Gs dynamic kit, Cisbio Bioassays, 62AM4PEJ).
(§1) Compounds were tested at the following nanomolar concentrations, in duplicate: 0.3 nM, 1 nM, 3 nM, 10 nM, 30 nM, 100 nM, 300 nM, 1,000 nM, 3,000 nM, and 10,000 nM.

human 5-HT7 receptor = biological target: T3, human 5-HT7 receptor (Homo sapiens, UniProt P34969); assay: 5HT7 Antagonism Assay (Euroscreen FAST-0499C), cAMP HTRF; conditions: CHO-K1 cells expressing human 5-HT7, reference agonist at EC80, cAMP HTRF
T3 construct: host or cells: CHO-K1
Protocol: 5HT7 Antagonism Assay Protocol (Euroscreen FAST-0499C)
CHO-K1 cells expressing the human 5-HT7 receptor, grown prior to the test in media without antibiotic, were detached by gentle flushing with PBS-EDTA (5 mM EDTA), recovered by centrifugation and resuspended in assay buffer (Krebs-Ringer HEPES buffer: 5 mM KCl, 1.25 mM MgSO4, 124 mM NaCl, 25 mM HEPES, 13.3 mM Glucose, 1.25 mM KH2PO4, 1.45 mM CaCl2), 0.5 g/l BSA, supplemented with 1 mM IBMX).
Dose response curves were performed in parallel with reference compounds (e.g., 5-carboxamidotryptamine (5-CT)).
For antagonist testing in a 384 well plate: 5 μl of cells (3000 cells) were mixed with 5 μl of a mix of test compound and reference agonist (for a final assay concentration corresponding to its EC80) diluted in assay buffer. The plates were then incubated for about 30 minutes at about room temperature. After addition of the lysis buffer containing cAMP-d2 and anti-cAMP cryptate detection reagents, plates were incubated for about 1 hour at about room temperature, and fluorescence ratios were measured according to the manufacturer's specifications (HTRF kit: cAMP Gs dynamic kit, Cisbio Bioassays, 62AM4PEJ).
as §1

[1] = read-out: 5-HT2A (IC50), CHO-K1 cells expressing human 5-HT2A, reference agonist at EC80, IP-One
[2] = CHO-K1 cells expressing human 5-HT2A, reference agonist at EC80, IP-One, read-out: 5-HT2A (IC50)
[3] = 5-HT2A (IC50), CHO-K1 cells expressing human 5-HT2A, reference agonist at EC80, IP-One

T3 sequence (P34969 whole entry): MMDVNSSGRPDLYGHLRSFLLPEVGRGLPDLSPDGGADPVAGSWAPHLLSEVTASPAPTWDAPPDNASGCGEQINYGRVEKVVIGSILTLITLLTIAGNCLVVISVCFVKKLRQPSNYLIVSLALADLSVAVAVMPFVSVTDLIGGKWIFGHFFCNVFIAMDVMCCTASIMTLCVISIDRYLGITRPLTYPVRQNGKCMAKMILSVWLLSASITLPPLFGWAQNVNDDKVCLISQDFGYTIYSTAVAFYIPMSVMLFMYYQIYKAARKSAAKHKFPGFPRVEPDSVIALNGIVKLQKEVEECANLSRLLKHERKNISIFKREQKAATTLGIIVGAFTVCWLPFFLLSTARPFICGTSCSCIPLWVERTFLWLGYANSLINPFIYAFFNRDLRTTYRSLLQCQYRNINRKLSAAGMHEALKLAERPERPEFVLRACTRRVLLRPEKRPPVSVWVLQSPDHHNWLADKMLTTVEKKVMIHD
T1 sequence (P28223 whole entry): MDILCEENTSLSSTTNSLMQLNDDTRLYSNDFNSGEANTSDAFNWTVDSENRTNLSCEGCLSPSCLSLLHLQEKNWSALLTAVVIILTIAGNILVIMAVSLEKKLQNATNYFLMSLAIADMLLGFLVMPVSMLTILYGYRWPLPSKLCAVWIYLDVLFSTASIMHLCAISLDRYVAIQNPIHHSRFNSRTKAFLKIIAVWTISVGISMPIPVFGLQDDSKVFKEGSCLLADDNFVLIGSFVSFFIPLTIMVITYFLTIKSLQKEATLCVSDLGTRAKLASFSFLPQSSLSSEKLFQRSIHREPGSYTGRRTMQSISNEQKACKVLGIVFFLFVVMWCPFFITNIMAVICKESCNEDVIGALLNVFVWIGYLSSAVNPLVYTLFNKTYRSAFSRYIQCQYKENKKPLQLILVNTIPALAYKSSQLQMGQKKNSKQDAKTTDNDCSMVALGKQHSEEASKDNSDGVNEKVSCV

SMILES | IC50 (human 5-HT2A receptor; [1]) | EC50 (human TAAR1 receptors) | IC50 (human 5-HT7 receptor) | IC50 (human 5-HT2A receptor; [2]) | IC50 (human 5-HT2A receptor; [3])
CNCC1Oc2ccc(F)cc2Oc2ccccc21 (single isomer, unassigned) [Compound 44, (S*)-1-(7-fluoro-11H-dibenzo[b,e][1,4]dioxepin-11-yl)-N-methylmethanamine] | < 1 µM | < 1 µM | < 1 µM | – | –
CNCC1Oc2ccccc2Oc2ncccc21 (single isomer, unassigned) [Compound 45, (R*)-1-(5H-benzo[2,3][1,4]dioxepino[5,6-b]pyridin-5-yl)-N-methylmethanamine] | – | > 10 µM | ≥ 10 µM | 1 to 10 µM | –
CNCC1Oc2ccccc2Oc2ncccc21 (single isomer, unassigned) [Compound 46, (S*)-1-(5H-benzo[2,3][1,4]dioxepino[5,6-b]pyridin-5-yl)-N-methylmethanamine] | – | 1 to 10 µM | ≥ 10 µM | 1 to 10 µM | –
NCC1Oc2ccccc2Oc2ncccc21 (single isomer, unassigned) [Compound 47, (R*)-(5H-benzo[2,3][1,4]dioxepino[5,6-b]pyridin-5-yl)methanamine] | – | 1 to 10 µM | ≥ 10 µM | > 10 µM | –
NCC1Oc2ccccc2Oc2ncccc21 (single isomer, unassigned) [Compound 48, (S*)-(5H-benzo[2,3][1,4]dioxepino[5,6-b]pyridin-5-yl)methanamine] | – | 1 to 10 µM | ≥ 10 µM | > 10 µM | –
NCC1Oc2ccccc2Oc2cnccc21 (single isomer, unassigned) [Compound 49, (R*)-(5H-benzo[2,3][1,4]dioxepino[5,6-c]pyridin-5-yl)methanamine] | – | 1 to 10 µM | ≥ 10 µM | – | > 10 µM
NCC1Oc2ccccc2Oc2cnccc21 (single isomer, unassigned) [Compound 50, (S*)-(5H-benzo[2,3][1,4]dioxepino[5,6-c]pyridin-5-yl)methanamine] | > 10 µM | < 1 µM | ≥ 10 µM | – | –
CNCC1Oc2ccccc2Oc2cnccc21 (single isomer, unassigned) [Compound 51, (R*)-1-(5H-benzo[2,3][1,4]dioxepino[5,6-c]pyridin-5-yl)-N-methylmethanamine] | – | 1 to 10 µM | ≥ 10 µM | 1 to 10 µM | –
CNCC1Oc2ccccc2Oc2cnccc21 (single isomer, unassigned) [Compound 52, (S*)-1-(5H-benzo[2,3][1,4]dioxepino[5,6-c]pyridin-5-yl)-N-methylmethanamine] | – | > 10 µM | ≥ 10 µM | 1 to 10 µM | –
NCC1Oc2ccccc2Oc2ccncc21 (single isomer, unassigned) [Compound 53, (R*)-(11H-benzo[2,3][1,4]dioxepino[6,5-c]pyridin-11-yl)methanamine] | – | 1 to 10 µM | ≥ 10 µM | > 10 µM | –
NCC1Oc2ccccc2Oc2ccncc21 (single isomer, unassigned) [Compound 54, (S*)-(11H-benzo[2,3][1,4]dioxepino[6,5-c]pyridin-11-yl)methanamine] | – | 1 to 10 µM | ≥ 10 µM | > 10 µM | –
CNC[C@@H]1Oc2ccccc2Oc2ccncc21 (single isomer, unassigned) [Compound 55, (R*)-1-(11H-benzo[2,3][1,4]dioxepino[6,5-c]pyridin-11-yl)-N-methylmethanamine] | – | > 10 µM | ≥ 10 µM | > 10 µM | –
CNC[C@H]1Oc2ccccc2Oc2ccncc21 (single isomer, unassigned) [Compound 56, (S*)-1-(11H-benzo[2,3][1,4]dioxepino[6,5-c]pyridin-11-yl)-N-methylmethanamine] | – | > 10 µM | ≥ 10 µM | > 10 µM | –
CNCC1Oc2ccccc2Oc2cccnc21 (single isomer, unassigned) [Compound 57, (S*)-1-(11H-benzo[2,3][1,4]dioxepino[6,5-b]pyridin-11-yl)-N-methylmethanamine] | – | < 1 µM | ≥ 10 µM | – | 1 to 10 µM
CNCC1Oc2ccccc2Oc2cccnc21 (single isomer, unassigned) [Compound 58, (R*)-1-(11H-benzo[2,3][1,4]dioxepino[6,5-b]pyridin-11-yl)-N-methylmethanamine] | 1 to 10 µM | < 1 µM | 1 to 10 µM | – | –
NCC1Oc2ccccc2Oc2cccnc21 (single isomer, unassigned) [Compound 59, (S*)-(11H-benzo[2,3][1,4]dioxepino[6,5-b]pyridin-11-yl)methanamine] | – | < 1 µM | ≥ 10 µM | – | > 10 µM
NCC1Oc2ccccc2Oc2cccnc21 (single isomer, unassigned) [Compound 60, (R*)-(11H-benzo[2,3][1,4]dioxepino[6,5-b]pyridin-11-yl)methanamine] | > 10 µM | < 1 µM | ≥ 10 µM | – | –
NCC1Cc2c(F)cccc2Oc2ccccc21 (single isomer, unassigned) [Compound 80, (R*)-(1-fluoro-10,11-dihydrodibenzo[b,f]oxepin-10-yl)methanamine] | – | < 1 µM | ≥ 10 µM | – | < 1 µM
NCC1Cc2c(F)cccc2Oc2ccccc21 (single isomer, unassigned) [Compound 81, (S*)-(1-fluoro-10,11-dihydrodibenzo[b,f]oxepin-10-yl)methanamine] | < 1 µM | < 1 µM | ≥ 10 µM | – | –
CNCC1Cc2c(F)cccc2Oc2ccccc21 (single isomer, unassigned) [Compound 82, (R*)-1-(1-fluoro-10,11-dihydrodibenzo[b,f]oxepin-10-yl)-N-methylmethanamine] | – | < 1 µM | 1 to 10 µM | – | < 1 µM
CNCC1Cc2c(F)cccc2Oc2ccccc21 (single isomer, unassigned) [Compound 83, (S*)-1-(1-fluoro-10,11-dihydrodibenzo[b,f]oxepin-10-yl)-N-methylmethanamine] | < 1 µM | > 10 µM | 1 to 10 µM | – | –
NCC1Cc2cccc(F)c2Oc2ccccc21 (single isomer, unassigned) [Compound 84, (R*)-(4-fluoro-10,11-dihydrodibenzo[b,f]oxepin-10-yl)methanamine] | – | < 1 µM | ≥ 10 µM | – | > 10 µM
NCC1Cc2cccc(F)c2Oc2ccccc21 (single isomer, unassigned) [Compound 85, (S*)-(4-fluoro-10,11-dihydrodibenzo[b,f]oxepin-10-yl)methanamine] | – | < 1 µM | ≥ 10 µM | – | 1 to 10 µM
CNCC1Cc2cccc(F)c2Oc2ccccc21 (single isomer, unassigned) [Compound 86, (R*)-(4-fluoro-10,11-dihydrodibenzo[b,f]oxepin-10-yl)-N-methylmethanamine] | – | < 1 µM | 1 to 10 µM | – | < 1 µM
